Measurements: patent publication US8952024B2, “Herbicidal pyrimidone derivatives” (E I du Pont de Nemours and Company, priority 2009, dated 2015)

Tests used:
Format in all cases: in vivo
rice (Oryza sativa) = experiment: Test B flooded paddy test; settings: for Plant response rating, Flood, Rice: 250 g ai/ha, flooded paddy test, visual rating on 0 to 100 scale (0 no effect, 100 complete control) after 13 to 15 days; for Plant response rating, Rice: Flood (flooded paddy test), 13 to 15 days; for Rice plant response rating: Flood, 31 g ai/ha, scale 0 to 100 (0 no effect, 100 complete control)
Method in brief: (§1)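 Plants were grown to the 2-leaf stage, then pots were flooded to 3 cm above the soil and compounds were applied directly into the paddy water. That depth was held throughout. After 13 to 15 days in a greenhouse, injury was visually rated against controls on a 0–100 scale.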

[1] = tested on: ducksalad (Heteranthera limosa); experiment: Test B flooded paddy test; settings: for Plant response rating, Flood, Ducksalad: 250 g ai/ha, flooded paddy test, visual rating on 0 to 100 scale (0 no effect, 100 complete control) after 13 to 15 days; for Plant response rating, Ducksalad: Flood (flooded paddy test), 13 to 15 days; for Ducksalad plant response rating: Flood, 31 g ai/ha, scale 0 to 100 (0 no effect, 100 complete control)
Method in brief: as §1

[2] = tested on: barnyardgrass (Echinochloa crus-galli); experiment: Test B flooded paddy test; settings: for Plant response rating, Flood, Barnyardgrass: 250 g ai/ha, flooded paddy test, visual rating on 0 to 100 scale (0 no effect, 100 complete control) after 13 to 15 days; for Plant response rating, Barnyardgrass: Flood (flooded paddy test), 13 to 15 days; for Barnyardgrass plant response rating: Flood, 31 g ai/ha, scale 0 to 100 (0 no effect, 100 complete control)
Method in brief: as §1

[3] = tested on: umbrella sedge (Cyperus difformis); experiment: Test B flooded paddy test; settings: for Plant response rating, Flood, Sedge, Umbrella: 250 g ai/ha, flooded paddy test, visual rating on 0 to 100 scale (0 no effect, 100 complete control) after 13 to 15 days; for Plant response rating, Sedge, Umbrella: Flood (flooded paddy test), 13 to 15 days; for Sedge, Umbrella plant response rating: Flood, 31 g ai/ha, scale 0 to 100 (0 no effect, 100 complete control)
Method in brief: as §1

[4] = tested on: wheat (Triticum aestivum); experiment: Test A pre-/postemergence plant response
Method in brief: (§2)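 Plants grown from seed in a loam soil and sand mix received test compounds both as a preemergence soil spray and, at the same time, as a postemergence spray at the one- to two-leaf stage. Injury was judged visually against untreated controls roughly ten days later, 0 meaning no effect and 100 complete control.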

[5] = tested on: morningglory (Ipomoea spp.); experiment: Test A pre-/postemergence plant response
Method in brief: as §2

[6] = tested on: giant foxtail (Setaria faberii); experiment: Test A pre-/postemergence plant response
Method in brief: as §2

[7] = tested on: pigweed (Amaranthus retroflexus); experiment: Test A pre-/postemergence plant response
Method in brief: as §2

[8] = tested on: velvetleaf (Abutilon theophrasti); experiment: Test A pre-/postemergence plant response
Method in brief: as §2

[9] = tested on: large crabgrass (Digitaria sanguinalis); experiment: Test A pre-/postemergence plant response
Method in brief: as §2

corn (Zea mays) = experiment: Test A pre-/postemergence plant response
Method in brief: as §2

[10] = tested on: barnyardgrass (Echinochloa crus-galli); experiment: Test A pre-/postemergence plant response
Method in brief: as §2

[11] = 62 g ai/ha, scale of 0 to 100 where 0 is no effect and 100 is complete control
[12] = 125 g ai/ha, scale 0 to 100, 0 is no effect, 100 is complete control
[13] = Postemergence, 125 g ai/ha, visual injury, 0 to 100 scale (0 no effect, 100 complete control), approx. ten days
[14] = Postemergence, 500 g ai/ha, 0 to 100 scale, 0 = no effect, 100 = complete control, approx. ten days
[15] = Preemergence, 125 g ai/ha, 0 to 100 scale, 0 = no effect, 100 = complete control
[16] = Preemergence, 500 g ai/ha, visual injury, 0 to 100 scale (0 no effect, 100 complete control), approx. ten days

O=C1CCCC(O)=C1C(=O)c1cnc(-c2ccc(Br)cc2)n(-c2ccccc2)c1=O [Compound 70]
50: Foxtail, Giant plant response rating [6, 13] | Crabgrass, Large plant response rating [9, 13] | Barnyardgrass plant response rating [10, 13]
90: Plant response rating, Foxtail, Giant [6, 14] | Plant response rating, Crabgrass, Large [9, 14] | Plant response rating, Crabgrass, Large [9, 16]
30: Plant response rating, Foxtail, Giant [6, 15]
40: Plant response rating, Crabgrass, Large [9, 15]
60: Plant response rating, Foxtail, Giant [6, 16] | Plant response rating, Pigweed [7, 15]
20: Plant response rating, Flood, Rice (rice (Oryza sativa)) | Plant response rating, Flood, Barnyardgrass [2] | Plant response rating, Flood, Sedge, Umbrella [3] | Plant response rating, Sedge, Umbrella [3, 12] | Plant response rating, Corn (corn (Zea mays); [14])
70: Plant response rating, Velvetleaf [8, 15]
80: Plant response rating, Velvetleaf [8, 16] | Plant response rating, Barnyardgrass [10, 14]
0: Plant response rating, Rice (rice (Oryza sativa); [11]) | Plant response rating, Rice (rice (Oryza sativa); [12]) | Rice plant response rating (rice (Oryza sativa)) | Plant response rating, Flood, Ducksalad [1] | Plant response rating, Ducksalad [1, 11] | Plant response rating, Ducksalad [1, 12] | Ducksalad plant response rating [1] | Plant response rating, Barnyardgrass [2, 11] | Plant response rating, Barnyardgrass [2, 12] | Barnyardgrass plant response rating [2] | Plant response rating, Sedge, Umbrella [3, 11] | Sedge, Umbrella plant response rating [3] | Wheat plant response rating [4, 13] | Plant response rating, Wheat [4, 14] | Plant response rating, Wheat [4, 15] | Plant response rating, Wheat [4, 16] | Plant response rating, Morningglory [5, 15] | Corn plant response rating (corn (Zea mays); [13]) | Plant response rating, Corn (corn (Zea mays); [15]) | Plant response rating, Corn (corn (Zea mays); [16]) | Plant response rating, Barnyardgrass [10, 15]
100: Morningglory plant response rating [5, 13] | Plant response rating, Morningglory [5, 14] | Pigweed plant response rating [7, 13] | Plant response rating, Pigweed [7, 14] | Plant response rating, Pigweed [7, 16] | Velvetleaf plant response rating [8, 13] | Plant response rating, Velvetleaf [8, 14]
10: Plant response rating, Morningglory [5, 16] | Plant response rating, Barnyardgrass [10, 16]

CCCc1ncc(C(=O)C2=C(O)CCCC2=O)c(=O)n1CCC [Compound 72]
100: Plant response rating, Pigweed [7, 14] | Velvetleaf plant response rating [8, 13] | Plant response rating, Velvetleaf [8, 14] | Plant response rating, Velvetleaf [8, 16] | Plant response rating, Crabgrass, Large [9, 16]
60: Plant response rating, Foxtail, Giant [6, 14] | Plant response rating, Barnyardgrass [10, 16]
40: Foxtail, Giant plant response rating [6, 13]
20: Plant response rating, Flood, Rice (rice (Oryza sativa)) | Plant response rating, Rice (rice (Oryza sativa); [12]) | Plant response rating, Corn (corn (Zea mays); [16])
50: Plant response rating, Pigweed [7, 15]
0: Plant response rating, Rice (rice (Oryza sativa); [11]) | Rice plant response rating (rice (Oryza sativa)) | Plant response rating, Flood, Ducksalad [1] | Plant response rating, Ducksalad [1, 11] | Plant response rating, Ducksalad [1, 12] | Ducksalad plant response rating [1] | Plant response rating, Barnyardgrass [2, 11] | Plant response rating, Barnyardgrass [2, 12] | Barnyardgrass plant response rating [2] | Plant response rating, Sedge, Umbrella [3, 11] | Plant response rating, Sedge, Umbrella [3, 12] | Sedge, Umbrella plant response rating [3] | Wheat plant response rating [4, 13] | Plant response rating, Wheat [4, 14] | Plant response rating, Wheat [4, 15] | Plant response rating, Wheat [4, 16] | Plant response rating, Foxtail, Giant [6, 15] | Corn plant response rating (corn (Zea mays); [13]) | Plant response rating, Corn (corn (Zea mays); [15])
10: Plant response rating, Corn (corn (Zea mays); [14]) | Plant response rating, Barnyardgrass [10, 15]
80: Pigweed plant response rating [7, 13] | Crabgrass, Large plant response rating [9, 13] | Barnyardgrass plant response rating [10, 13]
70: Plant response rating, Morningglory [5, 16] | Plant response rating, Crabgrass, Large [9, 15]
90: Morningglory plant response rating [5, 13] | Plant response rating, Morningglory [5, 14] | Plant response rating, Pigweed [7, 16] | Plant response rating, Velvetleaf [8, 15] | Plant response rating, Crabgrass, Large [9, 14] | Plant response rating, Barnyardgrass [10, 14]
30: Plant response rating, Flood, Barnyardgrass [2] | Plant response rating, Flood, Sedge, Umbrella [3] | Plant response rating, Foxtail, Giant [6, 16]
